Results from US6221847A, “Composition and method for treating bacterial infection” (Clemson University, priority 1999, dated 2001).

Legend:
Assay type in all cases: cell-based
[1] = tested on: Propionibacterium avidum ATCC 25577; assay: Spot on lawn method (Example IV), nisin; details: 4,000 International Units per milliliter
Procedure: (§1) Propionibacterium acnes, Propionibacterium granulosum, or other cutaneous propionibacteria to be examined for sensitivity to the bacteriocin are grown in actinomyces broth at 37° C. for 2 days under anaerobic conditions. Cultures (15 μL) being examined for sensitivity are added to soft actinomyces agar (5 ml) and the mixture is applied uniformly over each actinomyces agar plate. Preparations concentrated so as to contain 6,400 Activity Units/ml of bacteriocins are spotted (25 μl spots) onto the surface of the prepared plates. These plates are held at 37° C. for 2 days under anaerobic conditions to permit growth of the cutaneous culture and examined for zones of inhibition (lack of growth) where the bacteriocin was applied. Zones are evidence of bacteriocin inhibition.
(§2) Specifically, a solution of nisin containing 4,000 International Units per milliliter was tested for activity against Propionibacterium acnes ATCC 6919, Propionibacterium acnes ATCC 11827, Propionibacterium avidum ATCC 25577 and Propionibacterium granulosum ATCC 25564 according to the method described in Example IV above. It was observed that nisin inhibited all of the cutaneous cultures.

[2] = tested on: Propionibacterium acnes ATCC 11827; assay: Spot on lawn method (Example IV), nisin; details: 4,000 International Units per milliliter
Procedure: as §1, §2

[3] = tested on: Propionibacterium acnes ATCC 6919; assay: Spot on lawn method (Example IV), nisin; details: 4,000 International Units per milliliter
Procedure: as §1, §2

[4] = tested on: Propionibacterium granulosum ATCC 25564; assay: Spot on lawn method (Example IV), nisin; details: 4,000 International Units per milliliter
Procedure: as §1, §2

[5] = tested on: Propionibacterium avidum ATCC 25577; assay: Broth culture growth with nisin; details: 400 International Units per milliliter, anaerobic, 37° C., 24 hours
Procedure: (§3) Nisin at a final concentration of 400 International Units per milliliter was also added to broth cultures of each of the above bacteria strains. The broth cultures were incubated anaerobically at 37° C. for 24 hours.

[6] = tested on: Propionibacterium acnes ATCC 11827; assay: Broth culture growth with nisin; details: 400 International Units per milliliter, anaerobic, 37° C., 24 hours
Procedure: as §3

[7] = tested on: Propionibacterium acnes ATCC 6919; assay: Broth culture growth with nisin; details: 400 International Units per milliliter, anaerobic, 37° C., 24 hours
Procedure: as §3

[8] = tested on: Propionibacterium granulosum ATCC 25564; assay: Broth culture growth with nisin; details: 400 International Units per milliliter, anaerobic, 37° C., 24 hours
Procedure: as §3

## nisin
[1]
  inhibition (zones): inhibited
[2]
  inhibition (zones): inhibited
[3]
  inhibition (zones): inhibited
[4]
  inhibition (zones): inhibited
[5]
  growth of broth culture: markedly reduced the growth
[6]
  growth of broth culture: markedly reduced the growth
[7]
  growth of broth culture: markedly reduced the growth
[8]
  growth of broth culture: markedly reduced the growth
